Assay results: ChEMBL document CHEMBL2203203, “Structure-activity relationships of 2-arylamido-5,7-dihydro-4H-thieno[2,3-c]pyran-3-carboxamide derivatives as cannabinoid receptor agonists and their analgesic action” (Bioorg Med Chem Lett, 2012)

Legend:
[1] = biological target: T1, Cannabinoid receptor 1 (Homo sapiens, UniProt P21554); experiment: Agonist activity at human CB1 receptor after 4 hrs by luciferase reporter gene assay relative to control; assay type: functional
[2] = biological target: T2, Cannabinoid receptor 2 (Homo sapiens, UniProt P34972); experiment: Agonist activity at human CB2 receptor after 4 hrs by luciferase reporter gene assay relative to control; assay type: functional
[3] = species on record: Homo sapiens; experiment: Selectivity ratio of EC50 for human CB1 receptor to EC50 for human CB2 receptor
[4] = biological target: T2, Cannabinoid receptor 2; experiment: Agonist activity at human CB2 receptor after 4 hrs by luciferase reporter gene assay; assay type: functional
[5] = biological target: T1, Cannabinoid receptor 1; experiment: Agonist activity at human CB1 receptor after 4 hrs by luciferase reporter gene assay; assay type: functional

T2 sequence (P34972 whole entry): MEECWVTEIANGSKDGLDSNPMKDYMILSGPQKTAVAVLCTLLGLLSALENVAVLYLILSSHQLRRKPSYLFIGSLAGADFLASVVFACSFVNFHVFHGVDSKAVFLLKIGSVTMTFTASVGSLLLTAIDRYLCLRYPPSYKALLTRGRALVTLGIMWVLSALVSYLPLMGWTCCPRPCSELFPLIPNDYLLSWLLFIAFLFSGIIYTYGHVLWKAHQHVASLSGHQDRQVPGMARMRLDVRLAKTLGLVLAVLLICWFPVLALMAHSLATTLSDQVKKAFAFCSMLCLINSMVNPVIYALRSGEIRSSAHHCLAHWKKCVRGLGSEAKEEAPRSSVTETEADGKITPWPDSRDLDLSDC
T1 sequence (P21554 whole entry): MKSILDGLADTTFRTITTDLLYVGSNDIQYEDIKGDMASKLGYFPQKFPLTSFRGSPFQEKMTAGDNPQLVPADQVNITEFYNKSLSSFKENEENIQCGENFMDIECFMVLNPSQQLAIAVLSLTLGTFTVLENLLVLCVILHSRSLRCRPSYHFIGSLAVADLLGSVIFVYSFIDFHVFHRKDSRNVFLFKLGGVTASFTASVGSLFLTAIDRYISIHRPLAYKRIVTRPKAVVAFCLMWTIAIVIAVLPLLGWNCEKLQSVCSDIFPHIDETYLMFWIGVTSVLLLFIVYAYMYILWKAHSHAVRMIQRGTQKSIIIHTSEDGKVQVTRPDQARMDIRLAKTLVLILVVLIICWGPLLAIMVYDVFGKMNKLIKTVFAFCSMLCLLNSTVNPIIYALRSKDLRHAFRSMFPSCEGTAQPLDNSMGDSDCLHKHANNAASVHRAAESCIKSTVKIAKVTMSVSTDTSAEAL

O=C(Nc1sc2c(c1C(=O)N1CCC(F)(F)CC1)CCOC2)c1c(F)cccc1C(F)(F)F showed an Efficacy [1] of 94%, an Efficacy [2] of 97% and a Ratio EC50 [3] of 71. The EC50 [4] was 3.6 nM and the EC50 [5] was 251 nM.

O=C(Nc1sc2c(c1C(=O)N1CCOCC1)CCOC2)c1ccccc1Cl was tested, and the Efficacy [1] was 85%, the Efficacy [2] was 112% and the Ratio EC50 [3] was 14. For the same molecule, the EC50 [4] was 227 nM and the EC50 [5] was 3270 nM.

In the case of COC1CN(C(=O)c2c(NC(=O)CC(C)(C)C)sc3c2CCCC3)C1, the Efficacy [1] is reported as 63%, the Efficacy [2] is reported as 110% and the Ratio EC50 [3] is reported as 85. For the same molecule, the EC50 [4] was 47 nM and the EC50 [5] was 3970 nM.

Work on O=C(Nc1sc2c(c1C(=O)N1CCOCC1)CCOC2)c1ccccc1C(F)(F)F yielded an Efficacy [1] of 84%, an Efficacy [2] of 102% and a Ratio EC50 [3] of 50. For the same molecule, the EC50 [4] was 35 nM and the EC50 [5] was 1750 nM.

Molecule COCCNC(=O)c1c(NC(=O)C2CCCC2)sc2c1CCCC2 has an Efficacy [1] of 61%, an Efficacy [2] of 81% and a Ratio EC50 [3] of 113. The EC50 [4] was 71 nM and the EC50 [5] was 8030 nM.

With O=C(Nc1sc2c(c1C(=O)N1CCOCC1)CCOC2)c1c(F)cccc1C(F)(F)F the Efficacy [1] was 56%, the Efficacy [2] was 100% and the Ratio EC50 [3] was 48. The EC50 [4] was 95 nM and the EC50 [5] was 4540 nM.

O=C(Nc1sc2c(c1C(=O)N1CC(F)(F)C1)CCC(F)(F)C2)c1ccccc1OC(F)(F)F was tested, and the Efficacy [1] was 93%, the Efficacy [2] was 99% and the Ratio EC50 [3] was 8. For the same molecule, the EC50 [4] was 18 nM and the EC50 [5] was 139 nM.

In the case of CC(C)(C)CC(=O)Nc1sc2c(c1C(=O)NCC1CC1)C(C)(C)CC2, the Efficacy [1] is reported as 96%, the Efficacy [2] is reported as 101% and the Ratio EC50 [3] is reported as 38. For the same molecule, the EC50 [4] was 6.4 nM and the EC50 [5] was 243 nM.

Work on CC1(C)CCc2sc(NC(=O)c3ccccc3Cl)c(C(=O)NCC3CC3)c21 yielded an Efficacy [1] of 86%, an Efficacy [2] of 116% and a Ratio EC50 [3] of 30. For the same molecule, the EC50 [4] was 0.55 nM and the EC50 [5] was 16 nM.

Work on CC(C)(C)CC(=O)Nc1sc2c(c1C(=O)N1CCC(F)(F)CC1)CCCC2 yielded an Efficacy [1] of 86%, an Efficacy [2] of 82% and a Ratio EC50 [3] of 24. It also gave an EC50 [4] of 4.7 nM and an EC50 [5] of 113 nM.

O=C(Nc1sc2c(c1C(=O)NCC1CC1)CCOC2)c1c(F)cccc1C(F)(F)F was tested, and the Efficacy [1] was 90%, the Efficacy [2] was 112% and the Ratio EC50 [3] was 74. For the same molecule, the EC50 [4] was 11 nM and the EC50 [5] was 812 nM.

O=C(Nc1sc2c(c1C(=O)N1CCC(F)(F)CC1)CCOC2)c1ccccc1C(F)(F)F gave an Efficacy [1] of 90%, an Efficacy [2] of 99% and a Ratio EC50 [3] of 57. For the same molecule, the EC50 [4] was 1.4 nM and the EC50 [5] was 80 nM.

In the case of COCCNC(=O)c1c(NC(=O)CC(C)(C)C)sc2c1C(C)(C)CC2, the Efficacy [1] is reported as 98%, the Efficacy [2] is reported as 100% and the Ratio EC50 [3] is reported as 62. For the same molecule, the EC50 [4] was 5.9 nM and the EC50 [5] was 368 nM.

Molecule CC(C)(C)CC(=O)Nc1sc2c(c1C(=O)N1CC(F)(F)C1)CCCC2 has an Efficacy [1] of 91%, an Efficacy [2] of 99% and a Ratio EC50 [3] of 63. For the same molecule, the EC50 [4] was 5.4 nM and the EC50 [5] was 336 nM.

O=C(Nc1sc2c(c1C(=O)N1CCC(F)(F)CC1)CCOC2)c1ccccc1OC(F)(F)F gave an Efficacy [1] of 79%, an Efficacy [2] of 96% and a Ratio EC50 [3] of 38. For the same molecule, the EC50 [4] was 3.3 nM and the EC50 [5] was 125 nM.
